Key:
DIO C57Bl6 mice [1] = assay: Efficacy of various compounds in DIO mouse model (body weight versus time); format: in vivo; conditions: 2 mg/kg q4d sc
Description: On study day 1 animals were randomized into groups so that the average weight of the mice in each group was 47 g. The mice were treated with either phosphate buffered saline (vehicle), or compounds as listed in Table 19 dissolved in vehicle (dorsal, subcutaneous administration).

[2] = Plasma pharmacokinetics after single IV bolus in Sprague Dawley rats (LC/MS/MS, analyte Compound 1); format: in vivo; conditions: male, rat, Compound 1 30 mg/kg single IV bolus
Description: Blood samples were collected via saphenous vein puncture at 0, 0.25, 0.5, 1, 2, 4, 8, 24 and 48 hours.

DIO Levin rats [3] = assay: In vivo testing DIO Levin rats: weight changes, food consumption, insulin, leptin levels; conditions: for Final BW: after 68 days, 60% fat diet
Description: CKD-732 as referred to herein is the hemitartrate salt of the following structure:
Test articles were administered subcutaneously on an every 4 day (q4d) schedule in a diet-induced obesity (DIO) Levin-DS rat model. […] A dietary intervention (Standard Chow, Labdiet 5001; 3.4 kcal/g) was included to compare to the drug interventions. Upon arrival at three weeks of age, the male rats received ad libitum pellets of Harlan Diet TD.06414, 60% of calories from fat, 21% of calories from carbohydrate; 5.1 kcal/g. Prior to dosing the rats were randomized into groups of three animals with an average body weight of 595 gm. […] Compound 1 in the form of the hemitartrate and CKD-732 in the form of the hemitartrate were dissolved in ethanol prior to dilution with vehicle. All doses were administered at a volume of 5.0 ml/kg. […] On day 1, first dose, the rats were 14 weeks of age. Also on day 1, Group 2 was switched from the high fat diet to a standard chow diet; the remaining groups were maintained on a high fat diet for the duration of the study.
(§1) Animals were weighed every other day. Food consumption was measured weekly. On an approximately weekly basis throughout the study, blood samples were taken for assessment of serum chemistries including glucose and insulin. On Day 48 all rats underwent a 4 hour fasted Oral Glucose Tolerance Test (OGTT). Animals were dosed orally (per os, PO) at 8 mL/kg 25% glucose (2 g/kg). On day 68, gross pathology was performed to determine body composition.

DIO Levin rats [4] = assay: Oral Glucose Tolerance Test (OGTT) Day 48 and HOMA-ir in DIO Levin rats; format: in vivo; conditions: for Blood Glucose, Time 15 / Blood Glucose, Time 30 / Blood Glucose, Time 60 / Blood Glucose, Time 90 / Blood Glucose, Time 120: OGTT; for BW: at OGTT;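 for Blood Glucose pre-OGTT: blood glucose in mg/dL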;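 for Blood Glucose, Time 120: blood glucose in mg/dL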;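 for Blood Glucose, Time 15: blood glucose in mg/dL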;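 for Blood Glucose, Time 30: blood glucose in mg/dL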;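 for Blood Glucose, Time 60: blood glucose in mg/dL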;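 for Blood Glucose, Time 90: blood glucose in mg/dL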
Description: as §1

DIO C57Bl6 mice [5] = assay: In vivo testing DIO C57Bl6 mice: weight changes, food consumption, body composition (Compound 16 vs TNP-470)
Description: C57Bl6 male mice (N=6) thirteen weeks old with an average of weight of 34 g were ad libitum fed TD.06414 a high fat diet composed of 60% Kcal from fat (Harlan diet). On study day 1 animals were randomized into groups so that the average weight of each group was 33.9 g. […] Animals were weighed every other day. Food consumption was measured weekly. On day 33 gross pathology was performed to determine body composition.

[6] = in combination with paclitaxel, dosed three times per week; cited from earlier work
[7] = qod (Cmpd 16 1 mg/kg qod), Day 33

Q: Which “Group Avg. BW, Study Day 1” value (DIO C57Bl6 mice [1]) does the source give for “poly[HPMA-co-MA-GFLG-NH-2-[(2-(2-aminoethoxy)ethoxy)ethyl]carbamoylfumagillol] [Compound bb]” here?
A: 47.0 g

Q: What about the “Group Avg. BW, Study Day 7” value (DIO C57Bl6 mice [1]) of the same molecule?
A: 43.6 g

Q: What about the “Group Avg. BW, Study Day 15” value (DIO C57Bl6 mice [1]) of the same molecule?
A: 43.9 g

Q: What about the “Group Avg. BW, Study Day 21” value (DIO C57Bl6 mice [1]) of the same molecule?
A: 42.2 g

Q: What about the “Group Avg. BW, Study Day 26” value (DIO C57Bl6 mice [1]) of the same molecule?
A: 42.5 g

Q: And the “BW change vs. vehicle” value (DIO C57Bl6 mice [1]; day 26)?
A: −7.8%

Q: With `COC1C(OC(=O)N[C@H]2CC[C@H](N)CC2)CC[C@]2(CO2)C1[C@@]1(C)O[C@@H]1CC=C(C)C` (stereo partly drawn) [Compound 1, Fumagill-6-yl [trans-(4-aminocyclohexyl)]carbamate] as the molecule, how does the Cmax [2] read?
A: ~15 µM

Q: What about the half-life [2] of the same molecule?
A: 10 to 15 min

Q: What about the “lower body weight than vehicle” value (DIO Levin rats [3]; 1 mg/kg Q4D) of the same molecule?
A: 3.9%

Q: What about the “Avg. Insulin Day 7” value (DIO Levin rats [3]; 1 mg/kg q4d sc) of the same molecule?
A: 1.83 ng/mL

Q: And the “Avg. Insulin Day 15” value (DIO Levin rats [3]; 1 mg/kg q4d sc)?
A: 1.39 ng/mL

Q: What about the “Avg. Insulin Day 23” value (DIO Levin rats [3]; 1 mg/kg q4d sc) of the same molecule?
A: 1.20 ng/mL

Q: What about the “Avg. Insulin Day 48” value (DIO Levin rats [3]; 1 mg/kg q4d sc) of the same molecule?
A: 1.75 ng/mL

Q: What about the “Avg. Insulin Pre-dosing” value (DIO Levin rats [3]; 1 mg/kg q4d sc) of the same molecule?
A: 1.92 ng/mL

Q: And the “Group Average Food Consumption Day 1-8” value (DIO Levin rats [3]; 1 mg/kg q4d sc)?
A: 128.6 g

Q: And the “Group Average Food Consumption Day 9-15” value (DIO Levin rats [3]; 1 mg/kg q4d sc)?
A: 109.3 g

Q: And the “Group Average Food Consumption Day 16-23” value (DIO Levin rats [3]; 1 mg/kg q4d sc)?
A: 121.1 g

Q: And the “Group Average Food Consumption Day 24-30” value (DIO Levin rats [3]; 1 mg/kg q4d sc)?
A: 145.9 g

Q: What about the “Group Average Food Consumption Day 31-36” value (DIO Levin rats [3]; 1 mg/kg q4d sc) of the same molecule?
A: 144.6 g

Q: And the “Group Average Food Consumption Day 37-43” value (DIO Levin rats [3]; 1 mg/kg q4d sc)?
A: 141.7 g

Q: And the “Group Average Food Consumption Day 44-50” value (DIO Levin rats [3]; 1 mg/kg q4d sc)?
A: 122.4 g

Q: What about the “Group Average Food Consumption Day 51-57” value (DIO Levin rats [3]; 1 mg/kg q4d sc) of the same molecule?
A: 147.7 g

Q: What about the “Group Average Food Consumption Day 58-63” value (DIO Levin rats [3]; 1 mg/kg q4d sc) of the same molecule?
A: 140.7 g

Q: And the “Group Average Food Consumption Day 63-68” value (DIO Levin rats [3]; 1 mg/kg q4d sc)?
A: 55.1 g

Q: What about the “Leptin Levels Day 29” value (DIO Levin rats [3]; 1 mg/kg q4d sc) of the same molecule?
A: 2.47

Q: What about the “Leptin Levels Pre-dose” value (DIO Levin rats [3]; 1 mg/kg q4d sc) of the same molecule?
A: 2.50

Q: What about the “Leptin Levels, Day 29, % Change from Baseline” value (DIO Levin rats [3]; 1 mg/kg q4d sc) of the same molecule?
A: −1.3%

Q: What about the “Final BW” value (DIO Levin rats [3]; 1.0 mg/kg q4d sc) of the same molecule?
A: 717.3 g

Q: What about the “lower body weight than the vehicle control” value (DIO Levin rats [3]; 3 mg/kg Q4D, end of the study) of the same molecule?
A: 8.9%

Q: What about the “Avg. Insulin Day 7” value (DIO Levin rats [3]; 3 mg/kg q4d sc) of the same molecule?
A: 1.35 ng/mL

Q: And the “Avg. Insulin Day 15” value (DIO Levin rats [3]; 3 mg/kg q4d sc)?
A: 1.68 ng/mL

Q: What about the “Avg. Insulin Day 23” value (DIO Levin rats [3]; 3 mg/kg q4d sc) of the same molecule?
A: 1.27 ng/mL

Q: And the “Avg. Insulin Day 48” value (DIO Levin rats [3]; 3 mg/kg q4d sc)?
A: 1.40 ng/mL

Q: And the “Avg. Insulin Pre-dosing” value (DIO Levin rats [3]; 3 mg/kg q4d sc)?
A: 2.10 ng/mL

Q: What about the “Group Average Food Consumption Day 1-8” value (DIO Levin rats [3]; 3 mg/kg q4d sc) of the same molecule?
A: 123.6 g

Q: What about the “Group Average Food Consumption Day 9-15” value (DIO Levin rats [3]; 3 mg/kg q4d sc) of the same molecule?
A: 98.9 g

Q: And the “Group Average Food Consumption Day 16-23” value (DIO Levin rats [3]; 3 mg/kg q4d sc)?
A: 110.1 g

Q: What about the “Group Average Food Consumption Day 24-30” value (DIO Levin rats [3]; 3 mg/kg q4d sc) of the same molecule?
A: 149.3 g

Q: What about the “Group Average Food Consumption Day 31-36” value (DIO Levin rats [3]; 3 mg/kg q4d sc) of the same molecule?
A: 138.8 g

Q: What about the “Group Average Food Consumption Day 37-43” value (DIO Levin rats [3]; 3 mg/kg q4d sc) of the same molecule?
A: 130.9 g

Q: What about the “Group Average Food Consumption Day 44-50” value (DIO Levin rats [3]; 3 mg/kg q4d sc) of the same molecule?
A: 94.7 g

Q: What about the “Group Average Food Consumption Day 51-57” value (DIO Levin rats [3]; 3 mg/kg q4d sc) of the same molecule?
A: 116.2 g

Q: And the “Group Average Food Consumption Day 58-63” value (DIO Levin rats [3]; 3 mg/kg q4d sc)?
A: 124.9 g

Q: And the “Group Average Food Consumption Day 63-68” value (DIO Levin rats [3]; 3 mg/kg q4d sc)?
A: 49.8 g

Q: What about the “Leptin Levels Day 29” value (DIO Levin rats [3]; 3 mg/kg q4d sc) of the same molecule?
A: 3.60

Q: What about the “Leptin Levels Pre-dose” value (DIO Levin rats [3]; 3 mg/kg q4d sc) of the same molecule?
A: 3.23

Q: And the “Leptin Levels, Day 29, % Change from Baseline” value (DIO Levin rats [3]; 3 mg/kg q4d sc)?
A: 11.33%

Q: And the “Final BW” value (DIO Levin rats [3]; 3.0 mg/kg q4d sc)?
A: 684.0 g

Q: And the “reduction in leptin levels” value (DIO Levin rats [3]; serum leptin day 29)?
A: did not result in significant reductions in leptin levels

Q: What about the “Blood Glucose pre-OGTT” value (DIO Levin rats [4]; 1 mg/kg q4d sc) of the same molecule?
A: 124 mg/dL

Q: And the “HOMA-ir (Insulin Sensitivity) 15 min” value (DIO Levin rats [4]; 1 mg/kg q4d sc)?
A: 42.7

Q: And the “HOMA-ir (Insulin Sensitivity) 30 min” value (DIO Levin rats [4]; 1 mg/kg q4d sc)?
A: 21.1

Q: What about the “HOMA-ir (Insulin Sensitivity) Pre-dose” value (DIO Levin rats [4]; 1 mg/kg q4d sc) of the same molecule?
A: 15.4

Q: What about the “Blood Glucose, Time 15” value (DIO Levin rats [4]; 1 mg/kg q4d sc) of the same molecule?
A: 156 mg/dL

Q: What about the “Blood Glucose, Time 30” value (DIO Levin rats [4]; 1 mg/kg q4d sc) of the same molecule?
A: 142 mg/dL

Q: And the “Blood Glucose, Time 60” value (DIO Levin rats [4]; 1 mg/kg q4d sc)?
A: 152 mg/dL

Q: What about the “Blood Glucose, Time 90” value (DIO Levin rats [4]; 1 mg/kg q4d sc) of the same molecule?
A: 151 mg/dL

Q: What about the “Blood Glucose, Time 120” value (DIO Levin rats [4]; 1 mg/kg q4d sc) of the same molecule?
A: 142 mg/dL

Q: What about the BW (DIO Levin rats [4]; 1 mg/kg q4d sc) of the same molecule?
A: 686 g

Q: What about the “Blood Glucose pre-OGTT” value (DIO Levin rats [4]; 3 mg/kg q4d sc) of the same molecule?
A: 123 mg/dL

Q: What about the “HOMA-ir (Insulin Sensitivity) 15 min” value (DIO Levin rats [4]; 3 mg/kg q4d sc) of the same molecule?
A: 29.2

Q: What about the “HOMA-ir (Insulin Sensitivity) 30 min” value (DIO Levin rats [4]; 3 mg/kg q4d sc) of the same molecule?
A: 9.5

Q: What about the “HOMA-ir (Insulin Sensitivity) Pre-dose” value (DIO Levin rats [4]; 3 mg/kg q4d sc) of the same molecule?
A: 12.2

Q: What about the “Blood Glucose, Time 15” value (DIO Levin rats [4]; 3 mg/kg q4d sc) of the same molecule?
A: 175 mg/dL

Q: And the “Blood Glucose, Time 30” value (DIO Levin rats [4]; 3 mg/kg q4d sc)?
A: 171 mg/dL

Q: And the “Blood Glucose, Time 60” value (DIO Levin rats [4]; 3 mg/kg q4d sc)?
A: 149 mg/dL

Q: And the “Blood Glucose, Time 90” value (DIO Levin rats [4]; 3 mg/kg q4d sc)?
A: 147 mg/dL

Q: And the “Blood Glucose, Time 120” value (DIO Levin rats [4]; 3 mg/kg q4d sc)?
A: 129 mg/dL

Q: What about the BW (DIO Levin rats [4]; 3 mg/kg q4d sc) of the same molecule?
A: 668 g

Q: With `CO[C@@H]1[C@H](OC(=O)NC(=O)CCl)CC[C@]2(CO2)[C@H]1[C@@]1(C)O[C@@H]1CC=C(C)C` [TNP-470, chloroacetylcarbamoylfumagillol, reference compound] as the molecule, how does the Body Weight Day 33 (DIO C57Bl6 mice [5]; 0.5 mg/kg/day, qod, sc) read?
A: 34.1 g

Q: And the B.W. (DIO C57Bl6 mice [5]; [7])?
A: 34.1 grams

Q: What about the “Epididymal Fat” value (DIO C57Bl6 mice [5]; [7]) of the same molecule?
A: 1.54 grams

Q: And the “Inguinal Fat” value (DIO C57Bl6 mice [5]; [7])?
A: 1.21 grams

Q: What about the Liver (DIO C57Bl6 mice [5]; [7]) of the same molecule?
A: 1.15 grams

Q: And the “Retroperitoneal Fat” value (DIO C57Bl6 mice [5]; [7])?
A: 0.80 grams

Q: What about the “Total Fat” value (DIO C57Bl6 mice [5]; [7]) of the same molecule?
A: 3.55 grams

Q: And the MTD [6]?
A: 60 mg/m2

Source: patent US11304944B2, “MetAP2 inhibitors and methods of treating obesity” (SynDevRx, Inc., priority 2013, dated 2022)
